pIC50: −log10 of the molar value.
Columns and labels:
[1] = test system: SARS CoV-2 D614G Spike pseudovirus; assay type: cell-based
SARS-CoV-2 spike HPM7 = SARS-CoV-2 spike HPM7 (Severe acute respiratory syndrome coronavirus 2, UniProt P0DTC2, A892P/A899P/A942P/F817P/K986P/R682G/R683S/R685S/T883C/V705C/V987P)

O[C@@H](COc1cccc(OC[C@H](O)CN2CCCCC2)c1)CN1CCCCC1 [(R,R)-VE607, reference compound]
pIC50 [1]: 6.18

CN(C)C[C@@H](O)COc1cc(Br)cc(OC[C@H](O)CN(C)C)c1 [Compound 27]
Particles in closed conformation (3 RBD down) (SARS-CoV-2 spike HPM7): 16.9%
Particles in open conformation (1 RBD up) (SARS-CoV-2 spike HPM7): 68.0%
pIC50 [1]: 6.11

CN1CCN(C[C@@H](O)COc2cc(Br)cc(OC[C@H](O)CN3CCN(C)CC3)c2)CC1 [Compound 30]
pIC50 [1]: 5.88

CCN(C)C[C@@H](O)COc1cc(Br)cc(OC[C@H](O)CN(C)CC)c1 [Compound 33]
pIC50 [1]: 5.94

Reference: paper PMC12645998, “Optimization of VE607 to generate analogs with improved neutralization activities against SARS-CoV-2 variants” (Journal of Virology, 2025)
